Where a chain is given by its changes, count along the chain named. Values joined by “and” are separate entries in the source; they are usually repeats but may differ in a detail not shown here. Equal entries are not always repeated. “Also recorded” adds a separate entry of the source. Where a SMILES comes first, the peptide text is derived from it.
Tests used:
EMS lesions = details: 5 mg/kg IP daily for three weeks, versus vehicle
Source text: Lesions were established in an EMS mouse model of endometriosis by intraperitoneal injection of minced GFP+ uterine tissue from a mouse into wild-type c57/b16 mice. […] Endometrial disease was established in the mice and allowed to progress for three weeks prior to the initiation of therapy.

β-catenin [1] = molecular target: T1, β-catenin (Mus musculus, UniProt Q02248); experiment: Immunohistochemistry of β-catenin localization in lesions, area thresholding; format: in vivo; details: IP daily for 3 weeks
T1 construct: from tissue; host or cells: endometriosis lesions of the mouse model
T1 sequence (Q02248 1-781): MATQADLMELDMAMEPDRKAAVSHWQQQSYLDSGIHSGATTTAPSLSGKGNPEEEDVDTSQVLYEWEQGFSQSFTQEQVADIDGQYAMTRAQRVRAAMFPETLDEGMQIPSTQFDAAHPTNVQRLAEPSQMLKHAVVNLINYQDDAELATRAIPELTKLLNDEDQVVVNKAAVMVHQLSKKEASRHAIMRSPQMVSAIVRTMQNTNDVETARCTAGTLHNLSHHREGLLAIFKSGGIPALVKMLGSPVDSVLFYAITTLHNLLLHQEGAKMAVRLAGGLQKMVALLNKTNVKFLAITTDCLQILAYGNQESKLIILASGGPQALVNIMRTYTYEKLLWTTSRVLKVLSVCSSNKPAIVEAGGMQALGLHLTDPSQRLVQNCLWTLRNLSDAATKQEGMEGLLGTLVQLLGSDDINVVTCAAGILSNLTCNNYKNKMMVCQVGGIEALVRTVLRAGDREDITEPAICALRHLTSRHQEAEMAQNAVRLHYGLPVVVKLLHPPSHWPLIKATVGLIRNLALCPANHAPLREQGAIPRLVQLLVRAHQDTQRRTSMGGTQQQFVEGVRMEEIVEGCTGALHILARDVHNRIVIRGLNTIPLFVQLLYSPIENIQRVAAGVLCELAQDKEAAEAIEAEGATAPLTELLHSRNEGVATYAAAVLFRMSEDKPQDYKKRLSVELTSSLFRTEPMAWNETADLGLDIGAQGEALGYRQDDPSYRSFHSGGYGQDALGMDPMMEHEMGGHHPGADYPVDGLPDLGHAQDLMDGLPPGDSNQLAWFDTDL
Procedure: Endometriosis was established in a mouse model of disease. Mice were allowed to establish endometriosis for 3 weeks. After the first 3 weeks, mice were then intraperitoneally treated daily for 3 weeks with the therapeutic peptides corresponding to SEQ ID NOs: 215 or 393 or untreated negative control. To assess the localization of the peptides and β-catenin, lesions from the endometriosis mouse model were assessed. On the last day of treatment, in order to visualize the peptide localization to the lesion(s), mice were dosed with a biotinylated tagged peptide therapeutic or control. Mice were euthanized, lesions were removed, and fixed in formalin for histology and immunohistochemistry. Fixed and sectioned lesions were incubated with antibodies specific for β-catenin (Cell Signaling, 1:100, Secondary: Fisher Scientific, Goat anti-Rabbit-647 1:200), streptavidin for biotinylated-therapeutic (Fisher Scientific, SA-405 1:100), and Sytox green for nucleus (Fisher Scientific, 1:300). Immunohistochemical negative controls were performed on lesion sections from all treatment groups using IgG non-specific antibodies (Rabbit-IgG, AbCam 1:100).
Quantification of β-catenin localization was performed using the Zeiss Blue Software via thresholding. Thresholding allows the software to calculate the area of staining using pixel intensity; therefore, a quantitative number for staining can be extrapolated for the different cellular compartments (See Table 6).

β-catenin [2] = molecular target: T2, β-catenin (Homo sapiens, UniProt P35222); experiment: KD50 measurement using competitive fluorescence polarization (FP) with labelled TCF4; format: binding; details: fluorescence polarization, β-catenin
T2 sequence (P35222 1-781): T1 sequence (Q02248 1-781) with A706P
In short: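 First, β-catenin at 100 nM is mixed with 5 nM labelled TCF4 at room temperature. Next, compound is added across serial dilutions (10 nM to 30 uM). Finally, fluorescence polarization is measured (ex 470 nm, em 520 nm); experiments are done three times.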

[3] = molecular target: Wnt-responsive promoter (TCF/LEF); experiment: Wnt-dependent luciferase reporter assay; format: cell-based, murine
In short: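 Murine 3T3 fibroblasts carrying a TCF/LEF-driven luciferase reporter, stimulated with Wnt3a in the presence of increasing peptide concentrations or vehicle. Luminescence inhibition gave EC50 values in uM.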

[4] = molecular target: T3, β-catenin and E-Cadherin interaction (Homo sapiens, UniProt P35222); experiment: Competitive binding assay β-catenin / E-Cadherin-FC fusion; details: immobilized biotinylated β-catenin, 50 nM E-Cadherin-FC fusion, varying amounts of peptide
T3 sequence (P35222 1-781): T1 sequence (Q02248 1-781) with A706P
Procedure: Competitive binding assays were performed (FIG. 3) wherein biotinylated β-catenin was immobilized on streptavidin plates and 50 nM E-Cadherin-FC fusion was added in the presence of varying amounts of the peptide inhibitors (SEQ ID NO: 42).

WNT pathway genes = experiment: Human WNT Signaling Pathway RT2 Profiler PCR Array in primary cells; format: cell-based; details: 48 h, compared with ICG001
Procedure: On-target activity of each peptide was assessed by the transcriptional activity of WNT pathway genes using Qiagen's Human WNT Signaling Pathway RT^2 Profiler PCR Array). Primary cells were administered the therapeutic peptide corresponding to SEQ ID NO: 42 for 48 h. RNA was extracted from the harvested cells and profiled on the array using rtPCR. The array contains 84 genes related to Wnt-mediated signal transduction, including ligands, receptors, downstream signaling molecules, and regulators of the Wnt canonical pathway, two non-canonical pathways, planar cell polarity, and a calcium ion-dependent pathway, 38 of which were assessed here. Positive control of ICG001, a known Wnt inhibitor, was also run on the RNA array to be used as a comparison.

In the case of `CCCC[C@@H]1NC(=O)[C@@H](NC(C)=O)CCCCNC(=O)C[C@@H](C(=O)O)NC(=O)[C@H](Cc2c[nH]c3ccccc23)NC(=O)[C@H](C)NC(=O)[C@H](CC)NC(=O)[C@H]([C@@H](C)CC)NC(=O)[C@H](CC(C)C)NC(=O)[C@H](CC2CCCCC2)NC(=O)[C@H](Cc2c[nH]c3ccccc23)NC1=O` [SEQ ID NO: 215, Cyclo-Ac-K*Nle-W-Cha-LI-Abu-AWD*-COOH] (HELM PEPTIDE1{[ac].K.[Nle].W.[Cha].L.I.[Abu].A.W.D}$PEPTIDE1,PEPTIDE1,2:R3-11:R3$$$V2.0), the Activated macrophages (EMS lesions) is reported as “relative increase”, the “Relative numbers of activated macrophages, foam cells, polymorphonuclear neutrophils, B cells and T cells at the site of lesions (histology)” value (EMS lesions) is reported as “increase in the relative numbers” and the “% membrane bound β-catenin (staining area threshold), Average” value (β-catenin [1]; average of lesion samples) is reported as 46.4%. For the same compound, the “% nuclear β-catenin (staining area threshold), Average” value (β-catenin [1]; average of lesion samples) was 1.0%, the “% nuclear β-catenin (staining area threshold)” value (β-catenin [1]; single lesion sample, listed as Peptide 2) was 0.8% and 1.2% and 1.1% and the “β-Cat FP Hill slope” value (β-catenin [2]; listed as 2) was 0.82.
For `CC[C@H](C)[C@@H]1NC(=O)[C@H](CC(C)C)NC(=O)[C@H](Cc2ccccc2)NC(=O)[C@H](Cc2c[nH]c3ccccc23)NC(=O)[C@@H](N)CCCCNC(=O)CC[C@@H](C(=O)N[C@@H](Cc2c[nH]c3ccccc23)C(=O)NCC(=O)O)NC(=O)[C@H](CS)NC1=O` [compound 181] (HELM PEPTIDE1{K.W.F.L.I.C.E.W.G}$PEPTIDE1,PEPTIDE1,1:R3-7:R3$$$V2.0), the “% Viability non-Wnt responsive cells” value (non-Wnt responsive cells) was 89.16%, the EC50 [3] was greater than 30 µM and the “β-Cat FP Hill slope” value (β-catenin [2]) was 1.15.
For `CC[C@H](C)[C@H](NC(=O)[C@H](CC(C)C)NC(=O)[C@H](Cc1ccccc1)NC(=O)[C@H](Cc1c[nH]c2ccccc12)NC(=O)[C@@H](N)CCSC)C(=O)N[C@@H](CS)C(=O)N[C@@H](Cc1ccccc1)C(=O)N[C@@H](Cc1c[nH]c2ccccc12)C(=O)NCC(=O)O` [SEQ ID NO: 42] (H-MWFLICFWG-OH), the “Inhibition of the β-catenin and E-Cadherin interaction” value [4] was “None of the doses tested inhibited” and the “Inhibition of gene transcripts within the Wnt pathway” value (WNT pathway genes) was “outperformed the known positive control; also recorded: potent and specific Wnt inhibitor”.
